Assay results published in US6699887B2, “Anti-HIV pyrazole derivatives” (Hoffmann-La Roche Inc., priority 2000, dated 2004).

Experiments:
[1] = molecular target: HIV-1 RT (Human immunodeficiency virus type 1 group M subtype B, UniProt P04585); assay: HIV-1 Reverse Transcriptase Assay: Inhibitor IC50 Determination; type: biochemical; details: purified recombinant enzyme, poly(rA)/oligo(dT)16 template-primer, 37° C. 30 min
Method: Assay Method: HIV-1 Reverse Transcriptase Assay: Inhibitor IC50 Determination:
HIV-1 RT assay was carried out in 96-well Millipore filtermat NOB50 plates using purified recombinant enzyme and a poly(rA)/oligo(dT)16 template-primer in a total volume of 50 μL. The assay constituents were 50 mM Tris/HCl, 50 mM NaCl, 1 mM EDTA, 6 mM MgCl2, 5 μM dTTP, 0.1 μCi [^3H] dTTP, 5 μg/ml poly (rA) pre annealed to 2.5 μg/ml oligo (dT)16 and a range of inhibitor concentrations in a final concentration of 10% DMSO. Reactions were initiated by adding 5 nM HIV-1 RT and after incubation at 37° C. for 30 min, they were stopped by the addition of 50 μl ice cold 20%TCA and allowed to precipitate at 4° C. for 30 min. The precipitates were collected by applying vacuum to the plate and sequentially washing with 2×200 μl of 10% TCA and 2×200 μl 70% ethanol. Finally the plates were dried and radioactivity counted in a Wallac Microbeta 1450 after the addition of 15 μl scintillation fluid per well. IC50's were calculated by plotting % inhibition versus log10 inhibitor concentrations.

[2] = test system: HXB2-strain of HIV; assay: Antiviral assay: protection of HIV-infected MT4 cells from cell death (MTT); type: cell-based; details: Human immunodeficiency virus 1, 120 h; MT4 cells infected with HXB2-strain of HIV, 5 days, MTT viability
Method: Anti-HIV antiviral activity was assessed using an adaptation of the method of Pauwels et al. {Pauwels et al., 1988, J Virol Methods 20:309-321}. The method is based on the ability of compounds to protect HIV-infected T lymphoblastoid cells (MT4 cells) from cell-death mediated by the infection. The endpoint of the assay was calculated as the concentration of compound at which the cell viability of the culture was preserved by 50% (‘50% inhibitory concentration’, IC50). The cell viability of a culture was determined by the uptake of soluble, yellow 3-[4,5-dimethylthiazol-2-yl]-2,5-diphenyltetrazolium bromide (MTT) and its reduction to a purple insoluble formazan salt. After solubilization, spectrophotometric methods were employed to measure the amount of formazan product.
MT4 cells were prepared to be in logarithmic-phase growth and a total of 2×10^6 cells infected with the HXB2-strain of HIV at a multiplicity of 0.0001 infectious units of virus per cell in a total volume of between 200-500 microliters. The cells were incubated with virus for one hour at 37° C. before removal of virus. The cells are then washed in 0.01 M phosphate buffered saline, pH 7.2 before being resuspensed in culture medium for incubation in culture with serial dilutions of test compound. The culture medium used was RPMI 1640 without phenol red, supplemented with penicillin, streptomycin, L-glutamine and 10% fetal calf serum (GM10).
Test compounds were prepared as 2 mM solutions in dimethyl sulphoxide (DMSO). Four replicate, serial 2-fold dilutions in GM10 were then prepared and 50 microliters amounts placed in 96-well plates over a final nanomolar concentration range of 625-1.22. Fifty microliters GM10 and 3.5×10^4 infected cells were then added to each well. Control cultures containing no cells (blank), uninfected cells (100% viability; 4 replicates) and infected cells without compound (total virus-mediated cell death; 4 replicates) were also prepared. The cultures were then incubated at 37° C. in a humidified atmosphere of 5% CO2 in air for 5 days.
A fresh solution of 5 mg/mL MTT was prepared in 0.01 M phosphate buffered saline, pH 7.2 and 20 microliters added to each culture. The cultures were further incubated as before for 2 hours. They were then mixed by pipetting up and down and 170 microliters of Triton X-100 in acidified isopropanol (10% v/v Triton X-100 in 1:250 mixture of concentrated HCl in isopropanol). When the formazan deposit was fully solubilized by further mixing, the absorbance (OD) of the cultures was measured at 540 nm and 690 nm wavelength (690 nm readings were used as blanks for artefacts between wells). The percent protection for each treated culture was then calculated from the equation: [formula]
The IC50 can be obtained from graph plots of percent protection versus log10 drug concentration.

SMILES | IC50 [1] [nM] | IC50 [2] [nM]
Cc1nn(C(C)C)c(Sc2cc(Cl)cc(Cl)c2)c1Cc1ccccc1 | 270 | 24
Cc1cc(Cc2c(C)nn(C(C)C)c2Sc2cc(Cl)cc(Cl)c2)cc(Cl)n1 | 880 | 28
Cc1nn(C(C)C)c(Sc2cc(Cl)cc(Cl)c2)c1Cc1cnccn1 | 270 | 13.9
Cc1nn(-c2ccccc2)c(Sc2cc(Cl)cc(Cl)c2)c1Cc1ccccc1 | 2060 | 403
Cc1nn(C(C)C)c(Sc2cccc(Br)c2)c1Cc1ccncc1Cl | 5200 | 
Cc1nn(C(C)C)c(Sc2cc(Cl)cc(Cl)c2)c1Cc1ccncc1Cl | 177 | 51.7
Cc1nn(C(C)C)c(Sc2cc(Cl)cc(Cl)c2)c1Cc1ccncc1 | 76 | 2.7
Cc1nn(C(C)C)c(Sc2cc(Cl)cc(Cl)c2)c1COCc1ccncc1 | 112 | 3.6
Cc1nn(C(C)C)c(Sc2cc(Cl)cc(Cl)c2)c1Cc1ccnc(Cl)c1 | 109 | 15
Cc1nn(C(C)C)c(Sc2cc(Cl)cc(Cl)c2)c1COc1cncc(Cl)c1 | 650 | 203
COc1cc(Cl)cc(Sc2c(Cc3ccnc(OC)c3)c(C)nn2C(C)C)c1 | 298 | 31.5
Cc1nn(C(C)C)c(Sc2cc(Cl)cc(Cl)c2)c1Cc1ccncn1 | 456 | 13.5
Cc1nn(C(C)C)c(Sc2cc(Cl)cc(Cl)c2)c1COc1cccnc1 | 313 | 110
Cc1cccc(Sc2c(Cc3ccncc3Cl)c(C)nn2C(C)C)c1 | 1080 | 
CCn1nc(C)c(Cc2ccncc2)c1Sc1cc(Cl)cc(Cl)c1 | 84 | 9
Cc1nn(C(C)C)c(Sc2cc(Cl)cc(Cl)c2)c1Cc1ccccn1 | 1070 | 75

SMILES | IC50 [1] [nM] | IC50 [2] [nM]
Cc1nn(C(C)C)c(Sc2cc(Cl)cc(Cl)c2)c1COc1ccncc1 | 252 | 20
Cc1nn(C(C)C)c(Sc2cc(Cl)cc(Cl)c2)c1COCc1ccccc1 | 349 | 100
Cc1nn(C(C)C)c(Sc2cc(Cl)cc(Cl)c2)c1Cc1ccncc1F | 373 | 11.1
Cc1nn(C(C)C)c(Sc2cccc(Br)c2)c1Cc1ccncc1F | 463 | 19
Cc1nn(C(C)C)c(Sc2cc(Cl)cc(Cl)c2)c1CSc1ccncc1 | 292 | 34.1
Cc1nn(C(C)C)c(Sc2cc(Cl)cc(Cl)c2)c1Cc1ccc(C#N)cc1 | 176 | 11.9
Cc1nn(C(C)C)c(Sc2cc(Cl)cc(Cl)c2)c1Cc1cccnc1 | 572 | 14.6
CCn1nc(COC)c(Cc2ccccc2)c1Sc1cc(Cl)cc(Cl)c1 | 8040 | 453
Cc1cc(C)cc(Sc2c(Cc3ccccn3)c(C)nn2C(C)C)c1 | 950 | 64
Cc1cc(C)cc(Sc2c(Cc3ccncc3Cl)c(C)nn2C(C)C)c1 | 607 | 
Cc1cccc(Sc2c(Cc3ccncc3F)c(C)nn2C(C)C)c1 | 480 | 19
CCn1nc(C)c(Cc2cncc(Br)c2)c1Sc1cc(Cl)cc(Cl)c1 | 398 | 124
Cc1nn(-c2ccccc2)c(Sc2cc(Cl)cc(Cl)c2)c1Cc1ccncc1 | 105 | 36
Cc1cc(C)cc(Sc2c(Cc3ccncc3F)c(C)nn2C(C)C)c1 | 90 | 8.1
Cc1nn(-c2ccccc2)c(Sc2cc(Cl)cc(Cl)c2)c1CCc1ccccc1 | 3420 | 592
